Measured values taken from patent publication US5538834A, “Blocked photographically useful compounds for use with peroxide-containing processes” (Eastman Kodak Company, priority 1994, dated 1996).
Blank lines part the entries; values can stand above or below the compound they belong to.

Legend:
Format in all cases: physicochemical
[1] = Thermal stability: retained blocked developing agent by HPLC after incubation (Examples 3-5); conditions: 1 week at 100° F. and 50% relative humidity, 10080 min
Experimental: Blocked p-phenylenediamine developing agents 1, 3 and 6 were incorporated in photographic elements and evaluated for image dye formation activity and stability under storage conditions. The photographic elements were prepared as follows. The developing agents were dissolved in a high vapor pressure organic solvent (ethyl acetate for compounds 1 and 6, cyclohexanone for compound 3). The solutions were subsequently emulsified in aqueous gelatin using Alkanol-XC (Du Pont) as a dispersing aid. The dispersions were formulated such that the developing agents were initially present at 3% by weight, gelatin at 4% by weight and Alkanol-XC at 0.4% by weight. The initial slurries were emulsified by passing the mixtures through a colloid mill using known procedures. The organic solvents were then removed by evaporation.
Sets of strips were incubated for 1 week at 100° F. and 50% relativ humidity, and then evaluated by high performance liquid chromatography for amount of retained blocked developing agent. Sensitometry was obtained for step-tablet white-light exposures by contacting the strips with an activator solution at 77° F. The activator solution had the following composition:
The imaging activity and thermal stability of the exemplary blocked developing agents are given in Table V. The thermal stability denotes the percent retention, that is, the relative amount of blocked developing agent remaining after incubation, relative to the amount of developing agent initially coated.

[2] = Deblocking / dye release from ballasted blocked filter dye coating in alkaline buffer flow cell (Example 2); conditions: for % reaction after 400 sec.: 6.66667 min
Experimental: DOC Gelatin (2700 mg/m^2)
FILTER DYE LAYER Gelatin (3780 mg/m^2)
bis(vinylsulfonylmethyl)ether
FILMBASE polyacetate-butyrate
Coating strips were suspended in a flow cell while alkaline buffer solutions at 40° C. were passed through it. As deblocking proceeded, the yellow color of the strips was reduced as the water-solublefilter dye was released and washed out of the film.

[3] = Accelerated keeping test of coatings, raw stock stability (Example 2); conditions: 2 weeks at 50° C. and 50% relative humidity; 20160 min
Description: Coatings containing compound 32 as described above were also subjected to accelerated keeping tests to determine raw stock stability.

[4] = Ester cleavage rate in solution without and with hydrogen peroxide (Example 1); conditions: pH 10 solution, 25° C., 5% CH3CN aqueous solution
Experimental: ^a 5% CH3 CN aqueous solution
nonionic surfactant micellar solution
^c pH 10 solution, 25° C.

Retention [1]: 100%
SMILES: CCN(CCNS(C)(=O)=O)c1ccc(NC(=O)OCc2ccc(OC(=O)C(C)(C)C)c(NS(C)(=O)=O)c2)c(C)c1 [compound 1]

Retention [1]: 98%
SMILES: CCN(CCNS(C)(=O)=O)c1ccc(NC(=O)OCc2ccc(OC(=O)C(C)C)c(NC(=O)CCCC(=O)O)c2)c(C)c1 [compound 3]

Retention [1]: 100%
SMILES: CCC(=O)Oc1ccc(COC(=O)Nc2ccc(N(CC)CCNS(C)(=O)=O)cc2C)cc1NC(=O)c1ccc(NS(C)(=O)=O)cc1 [compound 6]

t1/2 ([2]; pH 10, 0.2 N H2O2, 40° C.): 3.67 min
% reaction after 400 sec. ([2]; pH 10, 0.2 N H2O2, 40° C.): 77%
t1/2 ([2]; pH 10, no H2O2, 40° C.): very long
% reaction after 400 sec. ([2]; pH 10, no H2O2, 40° C.): 3%
t1/2 ([2]; pH 10.7, 0.2 N H2O2, 40° C.): 1.17 min
% reaction after 400 sec. ([2]; pH 10.7, 0.2 N H2O2, 40° C.): 100%
t1/2 ([2]; pH 10.7, no H2O2, 40° C.): 13 min
% reaction after 400 sec. ([2]; pH 10.7, no H2O2, 40° C.): 31%
recovery after storage [3]: greater than 93%
SMILES: CCCCCCCCCCCCCCCCS(=O)(=O)Nc1ccc(C(=O)Nc2cc(COC(=O)Nc3cc(N(C)C)ccc3N=Nc3cccc(C(=O)O)c3)ccc2OC(=O)CC)cc1 [compound 32]

t1/2, 0.1M H2O2 ([4]; 0.1M H2O2): 0.0113 min
t1/2, no H2O2 ([4]; no H2O2): 95 min
SMILES: CC(C)(C)C(=O)Oc1ccc([N+](=O)[O-])cc1 [p-nitrophenyl pivalate]
